From PubChem BioAssay (NCI) come the findings set out here.

The structures appear in SMILES notation. “And” between values parts separate entries of the source, which are not always exact repeats. Identical values can stand only once.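 96-well plates; 48 h exposure; 5 concentrations. Endpoints by linear interpolation between flanking doses. Not reached: highest tested concentration assigned. GI50: concentration for 50% inhibition of growth. TGI is the concentration that stops growth completely.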

Test systems include SNB-19 CNS; NCI-H23 lung; SK-MEL-5 melanoma; SN12C renal; SF-268 CNS; HCT-15 colon; M14 melanoma; DU-145 prostate; HT29 colon; UACC-62 melanoma.
What all share (experiment): NCI anticancer screen, dose series, 48 h

Take `c1ccc(CNC2CC(NCc3ccccn3)CC(NCc3ccccn3)C2)nc1` (stereo unspecified): the GI50 is 3.42 µM and 1.64 µM and 1.96 µM in the assay with SNB-19 CNS; 2.7 µM and 6.69 µM and 1.99 µM with NCI-H23 lung; 1.88 µM in the assay with SK-MEL-5 melanoma; 3.15 µM and 1.39 µM and 2.35 µM in the assay on M14 melanoma; 3.19 µM and 8.17 µM and 1.96 µM in the assay with HT29 colon; 2.3 µM and 4.72 µM and 1.83 µM with UACC-62 melanoma. Moreover, the TGI with SNB-19 CNS is 11.7 µM and 5.64 µM and 3.83 µM; in the assay on NCI-H23 lung, 7.38 µM and 23.4 µM and 3.89 µM; in the assay on SK-MEL-5 melanoma, 5.52 µM and 7.49 µM and 3.68 µM; in the assay on SN12C renal, 20.8 µM and 13.6 µM and 17.7 µM; in the assay with SF-268 CNS, 15.7 µM and 13.3 µM and 16.3 µM; with HCT-15 colon, > 75.2 µM and 25 µM and > 100 µM. Moreover, the TGI was 10.3 µM and 8.32 µM and 5.31 µM with M14 melanoma; 8.52 µM and 17.1 µM in the assay on DU-145 prostate; 14.5 µM and 25 µM and 3.81 µM in the assay on HT29 colon; 5.27 µM and 12.1 µM and 3.53 µM with UACC-62 melanoma.

As to `O=C(O)[C@H]1[C@@H](C2CCCCC2)O[C@@H](C2CCCCC2)O[C@H]1C(F)(F)F`, the TGI in the assay with SNB-19 CNS came to 81.3 µM; in the assay on NCI-H23 lung, 42.6 µM; in the assay on SK-MEL-5 melanoma, 44.4 µM; with SN12C renal, 38.5 µM; with SF-268 CNS, 44.2 µM; in the assay with HCT-15 colon, 88.1 µM. Also, the TGI is 39.4 µM in the assay with M14 melanoma, greater than 100 µM in the assay on DU-145 prostate, 44 µM in the assay on HT29 colon and 41.2 µM in the assay with UACC-62 melanoma.

Regarding `CCOC(=O)CCCn1nnc(C(=O)OCC)c1C(=O)OCC`, the TGI with SNB-19 CNS, in the assay with NCI-H23 lung, in the assay with SK-MEL-5 melanoma, in the assay on SN12C renal, with SF-268 CNS and in the assay on HCT-15 colon was greater than 100 µM in each case. Besides, the TGI with DU-145 prostate, in the assay with HT29 colon and in the assay on UACC-62 melanoma was greater than 100 µM in each case.

On to `O=C(Cn1c(=O)oc2ccc(C(=O)c3ccc(F)cc3)cc21)c1ccc([N+](=O)[O-])cc1`, for which the TGI is greater than 100 µM with SNB-19 CNS; greater than 100 µM in the assay with NCI-H23 lung; 34 µM in the assay with SK-MEL-5 melanoma; greater than 100 µM with SN12C renal; greater than 100 µM with SF-268 CNS; greater than 100 µM in the assay on HCT-15 colon. Besides, the TGI with M14 melanoma, in the assay with DU-145 prostate, with HT29 colon and with UACC-62 melanoma was greater than 100 µM in each case.

`COc1ccc(-c2nc(N)c(C#N)c3c2CCS(=O)(=O)c2ccc(C)cc2-3)cc1OC`: the TGI in the assay on SNB-19 CNS, in the assay on NCI-H23 lung, in the assay with SK-MEL-5 melanoma, with SN12C renal, in the assay on SF-268 CNS and with HCT-15 colon was greater than 100 µM throughout. For the same molecule, the TGI with M14 melanoma was greater than 100 µM; in the assay with DU-145 prostate, greater than 100 µM; in the assay on HT29 colon, 92.2 µM; in the assay on UACC-62 melanoma, 51.7 µM.

Turning to `COC(=O)[C@H](Cc1ccccc1)NC(=O)c1ccc(CNC(=O)/C=C/c2ccc(-c3ccccc3)cc2)cc1`, the TGI in the assay on SNB-19 CNS is 39.1 µM; in the assay on NCI-H23 lung, greater than 100 µM; in the assay on SK-MEL-5 melanoma it was greater than 100 µM; in the assay on SN12C renal, greater than 100 µM; in the assay on SF-268 CNS, greater than 100 µM; in the assay with HCT-15 colon it was greater than 100 µM. Besides, the TGI in the assay with M14 melanoma, with DU-145 prostate, in the assay with HT29 colon and in the assay on UACC-62 melanoma was greater than 100 µM each time.

For `COC(=O)c1cn(CCCC(=O)O)nn1`, the TGI with SNB-19 CNS, in the assay with NCI-H23 lung, with SK-MEL-5 melanoma, in the assay with SN12C renal, with SF-268 CNS and in the assay with HCT-15 colon was greater than 100 µM each time. Further, the TGI in the assay with DU-145 prostate, in the assay with HT29 colon and with UACC-62 melanoma was greater than 100 µM throughout.

For `COc1cccc2c1OC1c3ccccc3OCC1C2` (stereo unspecified), the TGI in the assay on NCI-H23 lung, in the assay on SK-MEL-5 melanoma, with SN12C renal, in the assay on SF-268 CNS, with HCT-15 colon and with M14 melanoma was greater than 100 µM each time. Besides, the TGI with DU-145 prostate, in the assay with HT29 colon and in the assay on UACC-62 melanoma was greater than 100 µM throughout.

As for `OCC1OC(c2scc3c(=S)nc[nH]c23)C(O)C1O` (stereo unspecified), the TGI with SNB-19 CNS was greater than 100 µM; in the assay with NCI-H23 lung, 92.6 µM; in the assay on SK-MEL-5 melanoma it was greater than 73.6 µM; in the assay on SN12C renal, greater than 100 µM; in the assay with SF-268 CNS, greater than 100 µM; in the assay on HCT-15 colon it was greater than 95.6 µM. Moreover, the TGI in the assay on M14 melanoma amounted to 60.3 µM; in the assay on DU-145 prostate, 19.5 µM; in the assay on HT29 colon, 70.1 µM; with UACC-62 melanoma, 45.6 µM.

Take `C=CCC1(O)c2ccccc2C(=O)c2c(O)ccc(O)c21` (stereo unspecified): the TGI is 68.6 µM in the assay with SNB-19 CNS; 56 µM in the assay on NCI-H23 lung; 23.1 µM with SK-MEL-5 melanoma; 56.4 µM with SN12C renal; 56.9 µM with SF-268 CNS; greater than 75.7 µM with HCT-15 colon. Also, the TGI was 27.5 µM in the assay on M14 melanoma, 38 µM with DU-145 prostate, greater than 62.4 µM in the assay on HT29 colon and 20.3 µM in the assay on UACC-62 melanoma.

Turning to `O=C1c2c(F)c(F)c(F)c(F)c2SC2=NCCN12`, the TGI in the assay with SNB-19 CNS is 29 µM; in the assay with NCI-H23 lung it was 10.4 µM; in the assay on SK-MEL-5 melanoma it was 28.4 µM; in the assay on SN12C renal, 21.8 µM; in the assay on SF-268 CNS it was 28.2 µM; in the assay with HCT-15 colon, 7.56 µM. Further, the TGI in the assay on M14 melanoma was found to be 14.1 µM; in the assay with DU-145 prostate, 31 µM; in the assay on HT29 colon, 8.12 µM; in the assay with UACC-62 melanoma, 19.2 µM.

In the case of `CCCCNC1CCC2(SCCS2)c2[nH]c3ccccc3c21` (stereo unspecified), the TGI is greater than 100 µM in the assay on SNB-19 CNS; greater than 100 µM in the assay on NCI-H23 lung; 18 µM in the assay with SK-MEL-5 melanoma; greater than 100 µM in the assay on SN12C renal; greater than 100 µM with SF-268 CNS; greater than 65.1 µM in the assay with M14 melanoma. The TGI in the assay on DU-145 prostate is greater than 93.8 µM; in the assay with HT29 colon, greater than 100 µM; with UACC-62 melanoma it was greater than 83.8 µM.

For the molecule `c1csc(-c2ccc(-c3ccc(-c4ccc(-c5cccs5)s4)s3)s2)c1`, the TGI with NCI-H23 lung, in the assay on SK-MEL-5 melanoma, with SN12C renal, with SF-268 CNS, with HCT-15 colon and in the assay on M14 melanoma was greater than 100 µM in each case. Further, the TGI with DU-145 prostate, in the assay with HT29 colon and with UACC-62 melanoma was greater than 100 µM in each case.
